From patent US11492405B2, “Reducing systemic regulatory t cell levels or activity for treatment of disease and injury of the CNS” (Yeda Research and Development Co. Ltd, priority 2014, dated 2022)

Columns and labels:
Format in all cases: in vivo, mouse
Foxp3+ Tregs = assay: Conditional ablation of Treg by DTx, flow cytometry of blood and spleen
Experimental: (§1) Mice were transcardially perfused with PBS, and tissues were treated as previously described (Baruch et al, 2013). Brains were dissected and the different brain regions were removed under a dissecting microscope (Stemi DV4; Zeiss) in PBS, and tissues were dissociated using the gentleMACS™ dissociator (Miltenyi Biotec). Choroid plexus tissues were isolated from the lateral, third and fourth ventricles of the brain, incubated at 37° C. for 45 min in PBS (with Ca^2+/Mg^2+) containing 400 U/ml collagenase type IV (Worthington Biochemical Corporation), and then manually homogenized by pipetting. Spleens were mashed with the plunger of a syringe and treated with ACK (ammonium chloride potassium) lysing buffer to remove erythrocytes. In all cases, samples were stained according to the manufacturers' protocols. All samples were filtered through a 70 μm nylon mesh, and blocked with anti-Fc CD16/32 (1:100; BD Biosciences). For intracellular staining of IFN-γ, the cells were incubated with […] (10 ng/ml; Sigma-Aldrich) and ionomycin (250 ng/ml; Sigma-Aldrich) for 6 h, and Brefeldin-A (10 μg/ml; Sigma-Aldrich) was added for the last 4 h. Intracellular labeling of cytokines was done with BD Cytofix/Cytoperm™ Plus fixation/permeabilization kit (cat. no. 555028). […] Cells were analyzed on an LSRII cytometer (BD Biosciences) using FlowJo software. […]

5XFAD AD-Tg mice [1] = assay: Flow cytometry of splenocytes in 5XFAD AD-Tg mice; settings: weekly-GA, end of 1st week (two GA injections)
Experimental: as §1

5XFAD AD-Tg mice [2] = assay: Flow cytometry of CP IFN-γ-expressing immune cells in 5XFAD AD-Tg mice; settings: weekly-GA, end of 1st week (two GA injections)
Experimental: as §1

Substance	depletion of GFP-expressing FoxP3+CD4+ Treg cells (Foxp3+ Tregs; blood and spleen, Foxp3.LuciDTR mice, DTx 8 ng/g i.p. daily for 4 days)	depletion of Foxp3+ cells (Foxp3+ Tregs; splenocytes of AD-Tg/Foxp3-DTR+/− mice, 1 day after last of 4 daily i.p. DTx injections)	splenocyte Foxp3+ Treg levels (5XFAD AD-Tg mice [1])	IFN-γ-producing cells at the CP (5XFAD AD-Tg mice [2])
Diphtheria toxin [DTx]	> 99%	~99%		
Glatiramer acetate [GA]			reduced	increase
